Test results taken from patent US10851073B2, “Protein tyrosine phosphatase inhibitors and methods of use thereof” (Calico Life Sciences LLC, priority 2019, dated 2020).

Key:
[1] = target: T1, His tagged PTPN2 (TC45) protein (Homo sapiens, UniProt P17706); experiment: Mobility shift assay used to determine potency of PTPN2 inhibitors; type: biochemical; details: enzyme 0.5 nM, substrate 2 μM; read-out: PTPN2 MSA IC50
T1 construct: made in house
T1 sequence (P17706 with tags, fused parts or gaps isoform P17706-2): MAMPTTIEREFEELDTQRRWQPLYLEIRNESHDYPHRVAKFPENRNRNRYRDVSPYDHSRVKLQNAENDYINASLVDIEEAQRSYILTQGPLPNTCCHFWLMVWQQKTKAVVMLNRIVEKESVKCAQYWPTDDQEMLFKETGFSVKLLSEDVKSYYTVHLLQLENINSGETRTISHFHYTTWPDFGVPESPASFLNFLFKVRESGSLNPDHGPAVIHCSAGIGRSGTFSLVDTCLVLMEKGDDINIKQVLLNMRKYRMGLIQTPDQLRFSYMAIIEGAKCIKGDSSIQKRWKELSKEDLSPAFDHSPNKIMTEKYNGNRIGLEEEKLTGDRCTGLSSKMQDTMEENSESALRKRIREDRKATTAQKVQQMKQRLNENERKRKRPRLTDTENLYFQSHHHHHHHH
Outline: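 Enzyme (0.5 nM) preincubated with compound (12-point, 1:3 dilution) 10 min at room temperature in 50 mM HEPES pH 7.5, 1 mM EGTA, 10 mM EDTA, 0.01% Tween 20, 2 mM DTT; OG488-labelled phospho-insulin-receptor peptide substrate (2 μM) added for 10 min, then quenched. Microfluidic mobility shift (ex 488/em 530 nm) gave % conversion; IC50 from % inhibition.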

[2] = target: T2, His tagged full-length PTPN1 protein (Homo sapiens, UniProt P18031); experiment: Mobility shift assay (MSA) used to determine potency of PTPN1 inhibitors; type: biochemical; details: enzyme 0.5 nM, substrate 2 μM
T2 construct: made in house
T2 sequence (P18031 with tags, fused parts or gaps): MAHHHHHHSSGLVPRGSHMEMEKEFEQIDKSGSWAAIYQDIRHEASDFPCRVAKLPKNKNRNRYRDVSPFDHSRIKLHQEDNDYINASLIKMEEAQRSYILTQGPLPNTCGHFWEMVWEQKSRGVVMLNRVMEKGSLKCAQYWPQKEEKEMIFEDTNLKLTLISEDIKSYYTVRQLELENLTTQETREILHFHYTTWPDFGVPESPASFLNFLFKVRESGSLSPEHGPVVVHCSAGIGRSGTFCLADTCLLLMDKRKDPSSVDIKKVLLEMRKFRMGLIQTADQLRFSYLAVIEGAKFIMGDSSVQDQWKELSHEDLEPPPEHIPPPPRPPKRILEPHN
Protocol: Example 228: Mobility Shift Assay (MSA) Used to Determine Potency of PTPN1 Inhibitors
Compound activity was determined using in house His tagged full-length PTPN1 protein (SEQ ID NO: 3) in an in vitro enzymatic reaction. The enzymatic assay used to determine activity is a mobility shift assay using a LabChip EZ Reader by Caliper Life Sciences. The enzymatic reaction was carried out in assay buffer (50 mM HEPES pH 7.5, 1 mM EGTA, 10 mM EDTA, 0.01% Tween® 20, and 2 mM DTT). The compounds were dispensed on a white 384 well ProxiPlate™ (PerkinElmer Cat^# 6008289) plate using a Labcyte Echo® liquid handler at varying concentrations (12 point, 1:3 dilution). The enzyme (at 0.5 nM) was incubated with compound for 10 minutes at room temperature. Then the substrate (phosphorylated insulin receptor probe sequence: ((OG488)-(NH—CH2—CH2—O—CH2—CH2—O—CH2—CO)-T-R-D-I-(PY)-E-T-D-Y-Y-R-K-K-NH2) (SEQ ID NO: 2) was added at 2 μM to the plates and incubated for another 10 minutes at room temperature. Finally, a quench solution (water and 4-bromo-3-(2-oxo-2-propoxyethoxy)-5-(3-{[1-(phenylmethanesulfonyl)piperidin-4-yl]amino}phenyl)thiophene-2-carboxylic acid) was added to the plates, which were then run on the EZ Reader (excitation 488 nm, emission 530 nm) to measure % conversion (the amount of phosphorylated substrate which was de-phosphorylated by PTPN1). […] The % inhibition was then used to calculate the IC50 values.

Row | IC50 [2] | SMILES | IC50 [1]
1 | 10 to 100 nM | CC(C)[C@@H]1CN(C2CCc3cc(O)c(N4CC(=O)NS4(=O)=O)c(F)c3C2)CCO1 (stereo partly drawn) [Compound 182, 5-{1-fluoro-3-hydroxy-7-[(2R)-2-(propan-2-yl)morpholin-4-yl]-5,6,7,8-tetrahydronaphthalen-2-yl}-1λ^6,2,5-thiadiazolidine-1,1,3-trione] | 10 to 100 nM
2 | > 100 nM | NCCOC1CCc2c(cc(O)c(N3CC(=O)NS3(=O)=O)c2F)C1 (centres unmarked) [Compound 319, 5-[6-(2-aminoethoxy)-1-fluoro-3-hydroxy-5,6,7,8-tetrahydronaphthalen-2-yl]-1λ^6,2,5-thiadiazolidine-1,1,3-trione] | 10 to 100 nM
3 | 10 to 100 nM | O=C1CN(c2c(O)cc3c(c2F)CCC(OCC2CC2)C3)S(=O)(=O)N1 (centres unmarked) [Compound 310, 5-[6-(cyclopropylmethoxy)-1-fluoro-3-hydroxy-5,6,7,8-tetrahydronaphthalen-2-yl]-1λ^6,2,5-thiadiazolidine-1,1,3-trione] | 10 to 100 nM
4 | 10 to 100 nM | CC(CCN1CCc2cc(O)c(N3CC(=O)NS3(=O)=O)c(F)c2C1)CC(C)(C)C (centres unmarked) [Compound 302, 5-[8-fluoro-6-hydroxy-2-(3,5,5-trimethylhexyl)-1,2,3,4-tetrahydroisoquinolin-7-yl]-1λ^6,2,5-thiadiazolidine-1,1,3-trione] | 1 to 10 nM
5 | 1 to 10 nM | CC(O)CCOC(=O)N1CCc2cc(O)c(N3CC(=O)NS3(=O)=O)c(F)c2C1 (centres unmarked) [Compound 171, 3-hydroxybutyl 8-fluoro-6-hydroxy-7-(1,1,4-trioxo-1λ^6,2,5-thiadiazolidin-2-yl)-3,4-dihydroisoquinoline-2(1H)-carboxylate] | 1 to 10 nM
6 | > 100 nM | CC(Cc1ccc(C(C)C)cc1)CN1CCc2cc(O)c(N3CC(=O)NS3(=O)=O)c(F)c2C1 (centres unmarked) [Compound 295, 5-(8-fluoro-6-hydroxy-2-{2-methyl-3-[4-(propan-2-yl)phenyl]propyl}-1,2,3,4-tetrahydroisoquinolin-7-yl)-1λ^6,2,5-thiadiazolidine-1,1,3-trione] | 10 to 100 nM
7 | 10 to 100 nM | O=C1CN(c2c(O)cc3c(c2F)CC(C2CCN(CC4CC4)C2)CC3)S(=O)(=O)N1 (mixture of isomers) [Compound 140, 5-{7-[1-(cyclopropylmethyl)pyrrolidin-3-yl]-1-fluoro-3-hydroxy-5,6,7,8-tetrahydronaphthalen-2-yl}-1λ^6,2,5-thiadiazolidine-1,1,3-trione] | 10 to 100 nM
8 | > 100 nM | CC(C)(C)OC(=O)NCCOC1CCc2c(cc(O)c(N3CC(=O)NS3(=O)=O)c2F)C1 (centres unmarked) [Compound 316, tert-butyl (2-{[5-fluoro-7-hydroxy-6-(1,1,4-trioxo-1λ^6,2,5-thiadiazolidin-2-yl)-1,2,3,4-tetrahydronaphthalen-2-yl]oxy}ethyl)carbamate] | 10 to 100 nM
9 | 10 to 100 nM | CC(O)CCN1CCc2cc(O)c(N3CC(=O)NS3(=O)=O)c(F)c2C1 (centres unmarked) [Compound 242, 5-[8-fluoro-6-hydroxy-2-(3-hydroxybutyl)-1,2,3,4-tetrahydroisoquinolin-7-yl]-1λ^6,2,5-thiadiazolidine-1,1,3-trione] | 10 to 100 nM
10 | 10 to 100 nM | CC(C)CCNC1CCc2c(cc(O)c(N3CC(=O)NS3(=O)=O)c2F)C1 (centres unmarked) [Compound 313, 5-{1-fluoro-3-hydroxy-6-[(3-methylbutyl)amino]-5,6,7,8-tetrahydronaphthalen-2-yl}-1λ^6,2,5-thiadiazolidine-1,1,3-trione] | 1 to 10 nM
11 | > 100 nM | O=C1CN(c2c(O)cc3c(c2F)CN(CC2CCCN2)CC3)S(=O)(=O)N1 (centres unmarked) [Compound 183, 5-{8-fluoro-6-hydroxy-2-[(pyrrolidin-2-yl)methyl]-1,2,3,4-tetrahydroisoquinolin-7-yl}-1λ^6,2,5-thiadiazolidine-1,1,3-trione] | > 100 nM
12 | > 100 nM | O=C1CN(c2c(O)cc3c(c2F)CN(CC(O)C2CCCCC2)CC3)S(=O)(=O)N1 (centres unmarked) [Compound 215, 5-[2-(2-cyclohexyl-2-hydroxyethyl)-8-fluoro-6-hydroxy-1,2,3,4-tetrahydroisoquinolin-7-yl]-1λ^6,2,5-thiadiazolidine-1,1,3-trione] | > 100 nM
13 | 1 to 10 nM | O=C1CN(c2c(O)cc3c(c2F)CCC(NCCCC(F)F)C3)S(=O)(=O)N1 (centres unmarked) [Compound 311, 5-{6-[(4,4-difluorobutyl)amino]-1-fluoro-3-hydroxy-5,6,7,8-tetrahydronaphthalen-2-yl}-1λ^6,2,5-thiadiazolidine-1,1,3-trione] | 1 to 10 nM
14 | 10 to 100 nM | O=C1CN(c2c(O)cc3c(c2F)CN(C(=O)NCC2CCOC2)CC3)S(=O)(=O)N1 (centres unmarked) [Compound 270, 8-fluoro-6-hydroxy-N-[(oxolan-3-yl)methyl]-7-(1,1,4-trioxo-1λ^6,2,5-thiadiazolidin-2-yl)-3,4-dihydroisoquinoline-2(1H)-carboxamide] | 10 to 100 nM
15 | > 100 nM | COC1CCc2c(cc(O)c(N3CC(=O)NS3(=O)=O)c2F)C1 (centres unmarked) [Compound 317, 5-(1-fluoro-3-hydroxy-6-methoxy-5,6,7,8-tetrahydronaphthalen-2-yl)-1λ^6,2,5-thiadiazolidine-1,1,3-trione] | 10 to 100 nM
16 | 1 to 10 nM | O=C1CN(c2c(O)cc3c(c2F)CC(CNCCCC2CC2)C3)S(=O)(=O)N1 (centres unmarked) [Compound 274, 5-(2-{[(3-cyclopropylpropyl)amino]methyl}-4-fluoro-6-hydroxy-2,3-dihydro-1H-inden-5-yl)-1λ^6,2,5-thiadiazolidine-1,1,3-trione] | 1 to 10 nM
17 | 1 to 10 nM | O=C1CN(c2c(O)cc3c(c2F)CC(CCC2CC2)CC3)S(=O)(=O)N1 (centres unmarked) [Compound 105, 5-[7-(2-cyclopropylethyl)-1-fluoro-3-hydroxy-5,6,7,8-tetrahydronaphthalen-2-yl]-1λ^6,2,5-thiadiazolidine-1,1,3-trione] | 1 to 10 nM
18 | > 100 nM | C=CCC1(N)CCc2cc(O)c(N3CC(=O)NS3(=O)=O)c(F)c2C1 (centres unmarked) [Compound 240, 5-[7-amino-1-fluoro-3-hydroxy-7-(prop-2-en-1-yl)-5,6,7,8-tetrahydronaphthalen-2-yl]-1λ^6,2,5-thiadiazolidine-1,1,3-trione] | 10 to 100 nM
19 | 1 to 10 nM | Cc1noc(C)c1CCNC1CCc2cc(O)c(N3CC(=O)NS3(=O)=O)c(F)c2C1 (centres unmarked) [Compound 290, 5-(7-{[2-(3,5-dimethyl-1,2-oxazol-4-yl)ethyl]amino}-1-fluoro-3-hydroxy-5,6,7,8-tetrahydronaphthalen-2-yl)-1λ^6,2,5-thiadiazolidine-1,1,3-trione] | 1 to 10 nM
20 | 10 to 100 nM | O=C1CN(c2c(O)cc3c(c2F)CC(NCCn2cccn2)CC3)S(=O)(=O)N1 (centres unmarked) [Compound 141, 5-(1-fluoro-3-hydroxy-7-{[2-(1H-pyrazol-1-yl)ethyl]amino}-5,6,7,8-tetrahydronaphthalen-2-yl)-1λ^6,2,5-thiadiazolidine-1,1,3-trione] | 1 to 10 nM
21 | 10 to 100 nM | COCC(C)(C)CCNC1CCc2cc(O)c(N3CC(=O)NS3(=O)=O)c(F)c2C1 (centres unmarked) [Compound 121, 5-{1-fluoro-3-hydroxy-7-[(4-methoxy-3,3-dimethylbutyl)amino]-5,6,7,8-tetrahydronaphthalen-2-yl}-1λ^6,2,5-thiadiazolidine-1,1,3-trione] | 1 to 10 nM

Row | SMILES | IC50 [2] | IC50 [1]
22 | CC(C)(O)CCOC1CCc2c(cc(O)c(N3CC(=O)NS3(=O)=O)c2F)C1 (centres unmarked) [Compound 309, 5-[1-fluoro-3-hydroxy-6-(3-hydroxy-3-methylbutoxy)-5,6,7,8-tetrahydronaphthalen-2-yl]-1λ^6,2,5-thiadiazolidine-1,1,3-trione] | 10 to 100 nM | 10 to 100 nM
